IC50 data for 23 compounds are collected here from patent US9884063B2, “Amido-substituted azole compounds” (Bayer Pharma Aktiengesellschaft, priority 2014, dated 2018).

A word on the IC50: it is the concentration that inhibits the measured activity by half. High values mean weaker potency in that assay, low ones greater potency in that assay.

The test system of assay [1] is wildtype Wnt signaling cascade. Nature of the assay: HEK293 TOP Assay (Super TopFlash luciferase reporter, Wnt-3a stimulated). Format: cell-based. Conditions: Homo sapiens, HEK293, 16 h. Put shortly: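 HEK293 cells stably carrying Super TopFlash (TOP) or FOP reporter, stimulated with recombinant human Wnt-3a (2500–5 ng/ml, two-fold steps). Both lines incubated in parallel with compound from 50 μM to 15 nM (3.16-fold) in CAFTY buffer pH 7.4 with 2 mM Ca2+ and 0.01% BSA; selectivity judged TOP vs FOP.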

The next assay has as its target T1, TNKS2 (Homo sapiens, UniProt Q9H2K2).
T1 sequence (Q9H2K2 1-1166): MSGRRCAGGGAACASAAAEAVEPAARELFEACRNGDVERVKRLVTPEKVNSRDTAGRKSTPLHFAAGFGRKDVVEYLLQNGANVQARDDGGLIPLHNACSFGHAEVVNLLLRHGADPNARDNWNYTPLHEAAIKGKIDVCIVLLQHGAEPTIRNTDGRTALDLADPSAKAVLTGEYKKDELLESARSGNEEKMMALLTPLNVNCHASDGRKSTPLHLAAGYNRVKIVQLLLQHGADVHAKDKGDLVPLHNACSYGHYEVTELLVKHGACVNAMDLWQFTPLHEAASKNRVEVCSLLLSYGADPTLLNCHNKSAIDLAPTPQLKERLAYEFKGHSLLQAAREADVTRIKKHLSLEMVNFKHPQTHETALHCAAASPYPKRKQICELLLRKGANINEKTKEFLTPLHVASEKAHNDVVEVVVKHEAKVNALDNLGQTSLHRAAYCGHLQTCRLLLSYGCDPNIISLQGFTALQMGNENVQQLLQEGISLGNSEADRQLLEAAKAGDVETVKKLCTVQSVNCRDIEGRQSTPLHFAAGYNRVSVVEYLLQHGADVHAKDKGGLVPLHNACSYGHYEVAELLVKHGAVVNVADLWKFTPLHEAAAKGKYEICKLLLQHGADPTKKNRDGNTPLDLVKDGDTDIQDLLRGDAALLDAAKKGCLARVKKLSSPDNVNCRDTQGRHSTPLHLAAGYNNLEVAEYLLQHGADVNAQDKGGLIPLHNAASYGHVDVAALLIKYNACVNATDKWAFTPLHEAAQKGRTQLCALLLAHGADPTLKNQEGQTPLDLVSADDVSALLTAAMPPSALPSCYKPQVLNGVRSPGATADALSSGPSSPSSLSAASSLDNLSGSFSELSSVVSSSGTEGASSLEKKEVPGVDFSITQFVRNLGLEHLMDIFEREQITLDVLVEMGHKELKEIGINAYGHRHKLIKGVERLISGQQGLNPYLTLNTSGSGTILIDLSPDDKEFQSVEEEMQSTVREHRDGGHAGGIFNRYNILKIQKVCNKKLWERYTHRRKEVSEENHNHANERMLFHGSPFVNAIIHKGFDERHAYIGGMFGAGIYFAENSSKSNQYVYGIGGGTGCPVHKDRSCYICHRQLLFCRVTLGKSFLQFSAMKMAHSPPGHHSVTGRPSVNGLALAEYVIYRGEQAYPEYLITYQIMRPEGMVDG
Nature of the assay: Modified TNKS2 Assay 2 (auto-parsylation, [3H]-NAD+ SPA). Type of assay: biochemical. The following applies: 6 nM TNKS2, 96 well.

Setting [2] is: HEK293 TOP reporter cell line, Wnt-3a at EC50, 16 hours incubation, compound dilution series 50 μM to 15 nM.
The mark [3] stands for this setting: HEK293 TOP reporter cells, Wnt3a at EC50, 16 hours, luciferase.

Take `CNC(=O)c1nc[nH]c1C(=O)Nc1ccc(NC(=O)c2ccccc2OC(F)(F)F)cc1` [Example 243, N^4-methyl-N^5-(4-{[2-(trifluoromethoxy)benzoyl]amino}phenyl)-1H-imidazole-4,5-dicarboxamide]: the IC50 in assay [1] (setting [2]) is 11500 nM; at TNKS2, above 10000 nM.

For `CNC(=O)c1nc[nH]c1C(=O)Nc1ccc(NC(=O)c2cc(OC)c(OC)cc2Cl)cc1` [Example 240, N^5-{4-[(2-chloro-4,5-dimethoxybenzoyl)amino]phenyl}-N^4-methyl-1H-imidazole-4,5-dicarboxamide], the IC50 in assay [1] (setting [2]) amounted to 80 nM; against TNKS2, 30 nM.

For `CNC(=O)c1nc[nH]c1C(=O)Nc1ccc(NC(=O)c2cc(OC)ccc2Cl)cc1` [Example 248, N^5-{4-[(2-chloro-5-methoxybenzoyl)amino]phenyl}-N^4-methyl-1H-imidazole-4,5-dicarboxamide], the values for the IC50 (in assay [1] (setting [2]); against TNKS2) were 850 nM and 480 nM, respectively.

In the case of `CC(CNC(=O)c1[nH]cnc1C(=O)Nc1ccc(NC(=O)c2ccccc2Cl)cc1)N1CCCCC1` (stereo not drawn) [Example 182, N^4-{4-[(2-chlorobenzoyl)amino]phenyl}-N^5-[2-(piperidin-1-yl)propyl]-1H-imidazole-4,5-dicarboxamide], the half-maximal inhibitory concentration (IC50) in assay [1] (setting [2]) amounted to 640 nM; at TNKS2, 10 nM.

Turning to `CNC(=O)c1nc[nH]c1C(=O)Nc1ccc(NC(=O)c2cc(F)c(F)cc2Cl)cc1` [Example 242, N^5-{4-[(2-chloro-4,5-difluorobenzoyl)amino]phenyl}-N^4-methyl-1H-imidazole-4,5-dicarboxamide], the figures for the half-maximal inhibitory concentration (IC50) (in assay [1] (setting [2]); against TNKS2) were 80 nM and 30 nM, respectively.

Consider `CNC(=O)c1nc[nH]c1C(=O)Nc1ccc(NC(=O)c2ccc(F)cc2Cl)c(C)c1` [Example 5, N^5-{4-[(2-chloro-4-fluorobenzoyl)amino]-3-methylphenyl}-N^4-methyl-1H-imidazole-4,5-dicarboxamide], for which the results for the IC50 (in assay [1] (setting [2]); in assay [1] (setting [3]); against TNKS2) were 240 nM, 240 nM and 770 nM, respectively.

Turning to `CNC(=O)c1nc[nH]c1C(=O)Nc1ccc(NC(=O)c2ccc(C)cc2Cl)cc1` [Example 244, N^5-{4-[(2-chloro-4-methylbenzoyl)amino]phenyl}-N^4-methyl-1H-imidazole-4,5-dicarboxamide], the figures for the IC50 (in assay [1] (setting [2]); at TNKS2) were 170 nM and 90 nM, respectively.

As to `CN(C)CCNC(=O)c1[nH]cnc1C(=O)Nc1ccc(NC(=O)c2ccc(F)cc2Br)cc1` [Example 217, N^4-{4-[(2-bromo-4-fluorobenzoyl)amino]phenyl}-N^5-[2-(dimethylamino)ethyl]-1H-imidazole-4,5-dicarboxamide], the IC50 in assay [1] (setting [2]) is 120 nM; on TNKS2 it was 8 nM.

Turning to `CN1CCN(CCNC(=O)c2[nH]cnc2C(=O)Nc2ccc(NC(=O)c3ccccc3Cl)cc2)CC1` [Example 160, N^4-{4-[(2-chlorobenzoyl)amino]phenyl}-N^5-[2-(4-methylpiperazin-1-yl)ethyl]-1H-imidazole-4,5-dicarboxamide], the IC50 is 580 nM in assay [1] (setting [2]) and 110 nM on TNKS2.

In the case of `CCNC(=O)c1nc[nH]c1C(=O)Nc1ccc(NC(=O)c2ccc(OCC)cc2Cl)cc1` [Example 259, N^5-{4-[(2-chloro-4-ethoxybenzoyl)amino]phenyl}-N^4-ethyl-1H-imidazole-4,5-dicarboxamide], the IC50 in assay [1] (setting [2]) worked out at 880 nM; against TNKS2, 7600 nM.

`CNC(=O)c1nc[nH]c1C(=O)Nc1ccc(NC(=O)c2ccc(OCCN(C)C)cc2Cl)cc1` [Example 25, N^5-[4-({2-chloro-4-[2-(dimethylamino)ethoxy]benzoyl}amino)phenyl]-N^4-methyl-1H-imidazole-4,5-dicarboxamide]: the IC50 is 720 nM in assay [1] (setting [2]), 720 nM in assay [1] (setting [3]) and 220 nM against TNKS2.

`O=C(Nc1ccc(NC(=O)c2nc[nH]c2C(=O)NCCN2CCCCC2)cc1)c1ccc(F)cc1Br` [Example 216, N^4-{4-[(2-bromo-4-fluorobenzoyl)amino]phenyl}-N^5-[2-(piperidin-1-yl)ethyl]-1H-imidazole-4,5-dicarboxamide]: the results for the IC50 (in assay [1] (setting [2]); on TNKS2) were 20 nM and 2 nM, respectively.

For the compound `CNC(=O)c1nc[nH]c1C(=O)Nc1ccc(NC(=O)c2c(F)cc(F)cc2Cl)cc1` [Example 118, N^5-{4-[(2-chloro-4,6-difluorobenzoyl)amino]phenyl}-N^4-methyl-1H-imidazole-4,5-dicarboxamide], the IC50 in assay [1] (setting [2]) came out at 620 nM; on TNKS2 it was 140 nM.

As for `O=C(Nc1ccc(NC(=O)c2nc[nH]c2C(=O)NC2CC2)cc1)c1ccc(F)cc1` [Example 131, N^5-cyclopropyl-N^4-{4-[(4-fluorobenzoyl)amino]phenyl}-1H-imidazole-4,5-dicarboxamide], the IC50 in assay [1] (setting [2]) is 9200 nM; on TNKS2, above 10000 nM.

For the compound `O=C(Nc1ccc(NC(=O)c2nc[nH]c2C(=O)NCCN2CCCC2)cc1)c1ccc(F)cc1` [Example 176, N^4-{4-[(4-fluorobenzoyl)amino]phenyl}-N^5-[2-(pyrrolidin-1-yl)ethyl]-1H-imidazole-4,5-dicarboxamide], the IC50 was determined as 340 nM in assay [1] (setting [2]) and 60 nM on TNKS2.

As for `O=C(Nc1ccc(NC(=O)c2nc[nH]c2C(=O)NCCF)cc1)c1ccc(F)cc1Cl` [Example 173, N^4-{4-[(2-chloro-4-fluorobenzoyl)amino]phenyl}-N^5-(2-fluoroethyl)-1H-imidazole-4,5-dicarboxamide], the IC50 in assay [1] (setting [2]) amounted to 270 nM; against TNKS2 it was 50 nM.

Regarding `CNC(=O)c1nc[nH]c1C(=O)Nc1ccc(NC(=O)c2ccccc2C(F)F)cc1` [Example 241, N^5-(4-{[2-(difluoromethyl)benzoyl]amino}phenyl)-N^4-methyl-1H-imidazole-4,5-dicarboxamide], the IC50 in assay [1] (setting [2]) turned out to be 1900 nM; at TNKS2 it was 1800 nM.

As to `CC(C)(CN1CCCCC1)NC(=O)c1[nH]cnc1C(=O)Nc1ccc(NC(=O)c2ccc(F)cc2Cl)cc1` [Example 184, N^4-{4-[(2-chloro-4-fluorobenzoyl)amino]phenyl}-N^5-[2-methyl-1-(piperidin-1-yl)propan-2-yl]-1H-imidazole-4,5-dicarboxamide], the IC50 amounted to 820 nM in assay [1] (setting [2]) and 50 nM against TNKS2.

For the compound `O=C(Nc1ccc(NC(=O)c2nc[nH]c2C(=O)NCCCN2CCOCC2)cc1)c1ccc(F)cc1` [Example 206, N^4-{4-[(4-fluorobenzoyl)amino]phenyl}-N^5-[3-(morpholin-4-yl)propyl]-1H-imidazole-4,5-dicarboxamide], the IC50 in assay [1] (setting [2]) is 2100 nM; on TNKS2 it was 5300 nM.

Regarding `CC1CCN(CCNC(=O)c2[nH]cnc2C(=O)Nc2ccc(NC(=O)c3ccc(F)cc3)cc2)CC1` [Example 164, N^4-{4-[(4-fluorobenzoyl)amino]phenyl}-N^5-[2-(4-methylpiperidin-1-yl)ethyl]-1H-imidazole-4,5-dicarboxamide], the IC50 in assay [1] (setting [2]) is 910 nM; on TNKS2, 60 nM.

Take `CC(C)(CN1CCOCC1)NC(=O)c1[nH]cnc1C(=O)Nc1ccc(NC(=O)c2ccc(F)cc2)cc1` [Example 180, N^4-{4-[(4-fluorobenzoyl)amino]phenyl}-N^5-[2-methyl-1-(morpholin-4-yl)propan-2-yl]-1H-imidazole-4,5-dicarboxamide]: the results for the IC50 (in assay [1] (setting [2]); against TNKS2) were 5350 nM and 6900 nM, respectively.

Take `CC(C)(CN1CCOCC1)NC(=O)c1[nH]cnc1C(=O)Nc1ccc(NC(=O)c2ccc(F)cc2Cl)cc1` [Example 207, N^4-{4-[(2-chloro-4-fluorobenzoyl)amino]phenyl}-N^5-[2-methyl-1-(morpholin-4-yl)propan-2-yl]-1H-imidazole-4,5-dicarboxamide]: the figures for the IC50 (in assay [1] (setting [2]); on TNKS2) were 710 nM and 210 nM, respectively.

On to `CC1CCCCN1CCNC(=O)c1[nH]cnc1C(=O)Nc1ccc(NC(=O)c2ccc(F)cc2)cc1` (stereo not drawn) [Example 169, N^4-{4-[(4-fluorobenzoyl)amino]phenyl}-N^5-[2-(2-methylpiperidin-1-yl)ethyl]-1H-imidazole-4,5-dicarboxamide], for which the IC50 in assay [1] (setting [2]) is 800 nM; against TNKS2, 180 nM.
